Data set [1] in a line: Aqueous solubility measured by HPLC. Format: physicochemical.
The test system of the next data set is wild-type HIV-1 (IIIB). The format is cell-based. Conditions: selective index, CC50 vs EC50 IIIB.
Setting [2] is: aqueous medium at pH 7.4 (buffer not named), pH 7.4.

The solubility is the concentration that dissolves in the medium under given conditions.

The structures appear in SMILES notation. ≈ marks a conversion by molar mass, not a printed value.

As for `Cc1cc(C#N)cc(C)c1Oc1cc(Nc2ccc(C#N)cc2)c(N)cc1CO` [7a], the solubility in data set [1] (setting [2]) is under 1 µg/mL. Further, in the data set on wild-type HIV-1 (IIIB), the SI was 114,019.

Molecule `Cc1cc(C#N)cc(C)c1Oc1cc(Nc2ccc(C#N)cc2)c(N)cc1CNC1CC1` [7c] had a solubility in data set [1] (aqueous medium at pH 2.0 (buffer not named), pH 2) of 285 µg/mL (≈ 673 µM). Besides, the SI in the data set on wild-type HIV-1 (IIIB) is recorded as 1,142.

Take `Cc1cc(C#N)cc(C)c1Oc1cc(Nc2ccc(C#N)cc2)c(N)cc1CNCCCO` [7d]: in the data set with wild-type HIV-1 (IIIB), the SI is 2,475.

On to `COCc1cc(N)c(Nc2ccc(C#N)cc2)cc1Oc1c(C)cc(C#N)cc1C` [7g], for which the solubility in data set [1] (setting [2]) was under 1 µg/mL.

Turning to `CC(=O)OCc1cc(N)c(Nc2ccc(C#N)cc2)cc1Oc1c(C)cc(C#N)cc1C` [7h], the solubility in data set [1] (setting [2]) is under 1 µg/mL.

In data set [1] (setting [2]), `COCc1cc(N)c(Nc2ccc(C#N)cc2)cc1Oc1c(C)cc(/C=C/C#N)cc1C` [11a] registered a solubility of under 1 µg/mL. For the same molecule, the SI with wild-type HIV-1 (IIIB) is listed as 8,763.

`CC(=O)OCc1cc(N)c(Nc2ccc(C#N)cc2)cc1Oc1c(C)cc(/C=C/C#N)cc1C` [11b]: in data set [1] (setting [2]), the solubility is under 1 µg/mL. The SI in the data set with wild-type HIV-1 (IIIB) is on record as 117,439.

Molecule `COCc1cc(N)c(Nc2ccc(C#N)cc2)cc1Oc1c(C)cc(CCC#N)cc1C` [12a] returned a solubility in data set [1] (setting [2]) of under 1 µg/mL. The SI with wild-type HIV-1 (IIIB) was >61,538.

As to `CC(=O)OCc1cc(N)c(Nc2ccc(C#N)cc2)cc1Oc1c(C)cc(CCC#N)cc1C` [12b], in data set [1] (setting [2]), the solubility was under 1 µg/mL. In the data set on wild-type HIV-1 (IIIB), the SI is listed as 46,667.

The values above are taken from publication PMC4137035 (Bioorganic & medicinal chemistry letters, 2014).
